“And” between values parts separate entries of the source, which are not always exact repeats. Equal values may be shown once.
Tested on: 624824-186-R-J3-PDC multicell spheroids, viability
Experiment: Anticancer human tumor 624824-186-R-J3-PDC patient-derived colon adenocarcinoma cell line growth inhibition [PI3K]
Settings: for viability, T/C: stronger effect = lower value
How it was run: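 Stroma-containing spheroids: tumor line, pooled-donor HUVEC, hMSC. Treatments: targeted agents with PI3K inhibitors. Dosing: clinically relevant, half-log spacing, 10 microM ceiling without known Cmax. Read-out: cell viability.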

[1] = curve of first compound, second compound 0.0316 µM
[2] = curve of first compound, second compound 0.1 µM
[3] = curve of first compound, second compound 0.316 µM
[4] = curve of first compound, second compound 1 µM
[5] = second compound 0.0316 µM, first compound 0.0316 µM
[6] = second compound 0.0316 µM, first compound 0.1 µM
[7] = second compound 0.0316 µM, first compound 0.316 µM
[8] = second compound 0.0316 µM, first compound 1 µM
[9] = second compound 0.0316 µM, first compound 3.16 µM
[10] = second compound 0.0316 µM, first compound 10 µM
[11] = second compound 0.1 µM, first compound 0.0316 µM
[12] = second compound 0.1 µM, first compound 0.1 µM
[13] = second compound 0.1 µM, first compound 0.316 µM
[14] = second compound 0.1 µM, first compound 1 µM
[15] = second compound 0.1 µM, first compound 3.16 µM
[16] = second compound 0.1 µM, first compound 10 µM
[17] = second compound 0.316 µM, first compound 0.0316 µM
[18] = second compound 0.316 µM, first compound 0.1 µM
[19] = second compound 0.316 µM, first compound 0.316 µM
[20] = second compound 0.316 µM, first compound 1 µM
[21] = second compound 0.316 µM, first compound 3.16 µM
[22] = second compound 0.316 µM, first compound 10 µM
[23] = second compound 1 µM, first compound 0.0316 µM
[24] = second compound 1 µM, first compound 0.1 µM
[25] = second compound 1 µM, first compound 0.316 µM
[26] = second compound 1 µM, first compound 1 µM
[27] = second compound 1 µM, first compound 3.16 µM
[28] = second compound 1 µM, first compound 10 µM
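Note: spheroids exposed to agents for seven days before luminescence read.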
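Throughout, for viability, T/C: luminescent signal used as a stand-in for spheroid viability; percent viability relative to DMSO vehicle control wells taken as 100%.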

**Q.** `CC(C)n1nc(-c2ccc3oc(N)nc3c2)c2c(N)ncnc21` was tested. Which viability, T/C (compound 0.000316 µM) did it give?
**A.** 103% [middle of 4 runs]

**Q.** And the viability, T/C (compound 0.001 µM)?
**A.** 104% and 97.2% and 101% (2×)

**Q.** And the viability, T/C (compound 0.00316 µM)?
**A.** 106% [middle of 4 runs]

**Q.** What about the viability, T/C (compound 0.01 µM) of the same compound?
**A.** 108% [middle of 4 runs]

**Q.** What about the viability, T/C (compound 0.0316 µM) of the same compound?
**A.** 99.4% [middle of 4 runs]

**Q.** What about the viability, T/C (compound 0.1 µM) of the same compound?
**A.** 64.2% [middle of 4 runs]

**Q.** What about the IC50 (curve of compound) of the same compound?
**A.** > 0.1 µM

**Q.** For `C[C@@H](NC(=O)c1ncnc(N)c1Cl)c1ncc(C(=O)Nc2cc(C(F)(F)F)c(Cl)cn2)s1` + Cc1nc(NC(=O)N2CCCC2C(N)=O)sc1-c1ccnc(C(C)(C)C(F)(F)F)c1, which IC50 [1] is on record?
**A.** > 10 µM

**Q.** And the IC50 [2]?
**A.** > 10 µM

**Q.** And the IC50 [3]?
**A.** > 10 µM

**Q.** And the IC50 [4]?
**A.** > 10 µM

**Q.** What about the IC50 (curve of first compound, second compound 3.16 µM) of the same compound?
**A.** 4.57 µM

**Q.** And the IC50 (curve of first compound, second compound 10 µM)?
**A.** 0.66 µM

**Q.** What about the viability, T/C [5] of the same compound?
**A.** 108%

**Q.** What about the viability, T/C [6] of the same compound?
**A.** 99.1%

**Q.** What about the viability, T/C [7] of the same compound?
**A.** 102%

**Q.** And the viability, T/C [8]?
**A.** 97%

**Q.** And the viability, T/C [9]?
**A.** 98.8%

**Q.** And the viability, T/C [10]?
**A.** 103%

**Q.** And the viability, T/C [11]?
**A.** 111%

**Q.** What about the viability, T/C [12] of the same compound?
**A.** 106%

**Q.** And the viability, T/C [13]?
**A.** 98.6%

**Q.** And the viability, T/C [14]?
**A.** 103%

**Q.** What about the viability, T/C [15] of the same compound?
**A.** 109%

**Q.** And the viability, T/C [16]?
**A.** 91%

**Q.** What about the viability, T/C [17] of the same compound?
**A.** 101%

**Q.** And the viability, T/C [18]?
**A.** 114%

**Q.** And the viability, T/C [19]?
**A.** 99%

**Q.** And the viability, T/C [20]?
**A.** 98.6%

**Q.** What about the viability, T/C [21] of the same compound?
**A.** 106%

**Q.** What about the viability, T/C [22] of the same compound?
**A.** 72.6%

**Q.** What about the viability, T/C [23] of the same compound?
**A.** 104%

**Q.** And the viability, T/C [24]?
**A.** 110%

**Q.** What about the viability, T/C [25] of the same compound?
**A.** 99.1%

**Q.** And the viability, T/C [26]?
**A.** 97.8%

**Q.** And the viability, T/C [27]?
**A.** 86.5%

**Q.** What about the viability, T/C [28] of the same compound?
**A.** 52.4%

**Q.** What about the viability, T/C (second compound 3.16 µM, first compound 0.0316 µM) of the same compound?
**A.** 91.5%

**Q.** What about the viability, T/C (second compound 3.16 µM, first compound 0.1 µM) of the same compound?
**A.** 85.5%

**Q.** And the viability, T/C (second compound 3.16 µM, first compound 0.316 µM)?
**A.** 82.7%

**Q.** What about the viability, T/C (second compound 3.16 µM, first compound 1 µM) of the same compound?
**A.** 75.8%

**Q.** What about the viability, T/C (second compound 3.16 µM, first compound 3.16 µM) of the same compound?
**A.** 59.1%

**Q.** And the viability, T/C (second compound 3.16 µM, first compound 10 µM)?
**A.** 30.7%

**Q.** What about the viability, T/C (second compound 10 µM, first compound 0.0316 µM) of the same compound?
**A.** 74.1%

**Q.** And the viability, T/C (second compound 10 µM, first compound 0.1 µM)?
**A.** 76.4%

**Q.** And the viability, T/C (second compound 10 µM, first compound 0.316 µM)?
**A.** 56%

**Q.** And the viability, T/C (second compound 10 µM, first compound 1 µM)?
**A.** 46.2%

**Q.** And the viability, T/C (second compound 10 µM, first compound 3.16 µM)?
**A.** 29.6%

**Q.** What about the viability, T/C (second compound 10 µM, first compound 10 µM) of the same compound?
**A.** 21.5%

**Q.** Which results are given for `C[C@@H](NC(=O)c1ncnc(N)c1Cl)c1ncc(C(=O)Nc2cc(C(F)(F)F)c(Cl)cn2)s1` + COc1c(OCCCN2CCOCC2)ccc2c3n(c(=NC(=O)c4cnc(N)nc4)nc12)CCN3?
**A.** IC50 (curve of first compound, second compound 0.00316 µM): > 10 µM; IC50 (curve of first compound, second compound 0.01 µM): > 10 µM; IC50 [1]: > 10 µM; IC50 [2]: 4.44 µM; IC50 [3]: 0.538 µM; IC50 [4]: < 0.0316 µM; viability, T/C (second compound 0.00316 µM, first compound 0.0316 µM): 108%; viability, T/C (second compound 0.00316 µM, first compound 0.1 µM): 114%; viability, T/C (second compound 0.00316 µM, first compound 0.316 µM): 109%; viability, T/C (second compound 0.00316 µM, first compound 1 µM): 103%; viability, T/C (second compound 0.00316 µM, first compound 3.16 µM): 99%; viability, T/C (second compound 0.00316 µM, first compound 10 µM): 85.8%; viability, T/C (second compound 0.01 µM, first compound 0.0316 µM): 107%; viability, T/C (second compound 0.01 µM, first compound 0.1 µM): 97.9%; viability, T/C (second compound 0.01 µM, first compound 0.316 µM): 95.6%; viability, T/C (second compound 0.01 µM, first compound 1 µM): 96.2%; viability, T/C (second compound 0.01 µM, first compound 3.16 µM): 92.5%; viability, T/C (second compound 0.01 µM, first compound 10 µM): 80.2%; viability, T/C [5]: 91.3%; viability, T/C [6]: 103%; viability, T/C [7]: 91.5%; viability, T/C [8]: 99.1%; viability, T/C [9]: 76.8%; viability, T/C [10]: 52.1%; viability, T/C [11]: 88.2%; viability, T/C [12]: 82.1%; viability, T/C [13]: 78.3%; viability, T/C [14]: 76.9%; viability, T/C [15]: 54.1%; viability, T/C [16]: 38.5%; viability, T/C [17]: 54.4%; viability, T/C [18]: 60.6%; viability, T/C [19]: 59.2%; viability, T/C [20]: 41%; viability, T/C [21]: 28.5%; viability, T/C [22]: 23.1%; viability, T/C [23]: 32.9%; viability, T/C [24]: 31.5%; viability, T/C [25]: 31%; viability, T/C [26]: 25%; viability, T/C [27]: 20.3%; viability, T/C [28]: 14.8%

Reference: PubChem BioAssay AID1963977 (Molecular Pharmacology Branch, DTP, NCI, 2024)
